The results in this text go back to US20250326765A1, “PDE4B INHIBITOR AND USE THEREOF” (XIZANG HAISCO PHARMACEUTICAL CO., LTD., priority 2022, published 2025).

Bounds are passed on as bounds.

One may read the AUC(0-t) as exposure summed from dosing to a finite time, without extrapolation to infinity. A lower AUC(0-t) goes with less exposure. Broadly, the clearance is the volume of plasma or blood freed of the substance per unit of time. What is called half-life is how long it takes for the measured level to halve. Low values mean rapid decline, high ones slow decline. For orientation: IC50 means the point on the concentration scale where inhibition reaches its midpoint.

Data set [1] is described as follows: Pharmacokinetic test in beagle dogs. In kind it is in vivo. The protocol: 6.1 Experimental animals: male beagle dogs, about 8-11 kg, 6 beagle dogs/compound, purchased from Beijing Marshall Biotechnology Co., Ltd.
6.2 Experimental method: On the day of the experiment, 18 beagle dogs were randomly grouped according to their body weights. The animals were fasted with water available for 12-14 h one day before administration and fed 4 h after administration. Administration was carried out according to Table 8.
Before and after administration, 1 ml of blood was taken from the jugular vein or limb vein and placed in an EDTAK2 centrifuge tube. Centrifugation was carried out at 5000 rpm at 4° C. for 10 min, and plasma was collected. The blood collection time points for the intravenous group and intragastric group were both 0 min, 5 min, 15 min, 30 min, 1 h, 2 h, 4 h, 6 h, 8 h, 10 h, 12 h, 24 h, 48 h, and 72 h. Before analysis and detection, all the samples were stored at −80° C., and the samples were subjected to quantitative analysis using LC-MS/MS.

Data set [2] in a line: Inhibition of LPS-induced TNF-α release from human peripheral blood mononuclear cells in vitro. Type of data set: cell-based. Conditions: PBMC, hPBMC, 100 ng/mL LPS, 4 h; for IC50: class symbols, read-out: Re IC50 (nM) (relative IC50), TNF-α induced by LPS. The protocol:
Normal human peripheral blood which was anticoagulated (citric acid anticoagulation) was collected, and hPBMCs were prepared by Ficoll-Paque PLUS (Cytiva, Cat #17144002, density 1.077 g/mL). The concentration of hPBMC cells was adjusted to 0.25×10^6 cells/mL with RPMI1640 medium and inoculated into a 96-well plate in an amount of 50000 cells per well. Subsequently, different concentrations of drugs were added for pre-incubation for 1 h (the DMSO final concentration was 0.1%, and the positive and negative control wells had the same volume of RPMI1640 containing 0.1% DMSO). After the pre-incubation was complete, 100 ng/mL LPS (SIGMA, L2630) was added to the compound and positive control wells, and the negative control well had the same volume of RPMI1640 containing 0.1% DMSO. Incubation was carried out for 4 h in an incubator at 37° C. and 5% CO2. The cell supernatant was collected, and the content of TNF-α in the supernatant sample was detected by human TNF-α Elisa quantitative test kit (Sino Biological, Cat #KIT10602). The IC50 value was calculated using GraphPad Prism software.

Data set [3] can be described thus: Pharmacokinetic test in monkeys. Type of data set: in vivo, cynomolgus monkeys. The protocol: Experimental animals: Male cynomolgus monkeys, 3-5 kg, 3-6 years old, 6 monkeys/compound. Purchased from Suzhou Xishan Biotechnology Inc.
Experimental method: On the day of the experiment, 12 monkeys were randomly grouped according to their body weights. The animals were fasted with water available for 14-18 h one day before administration and fed 4 h after administration.
Before and after administration, 1.0 mL of blood sample was taken from the limb vein and placed in an EDTAK2 centrifuge tube. Centrifugation was carried out at 5000 rpm at 4° C. for 10 min, and plasma was collected. The blood collection time points for the intravenous group were 0 min, 5 min, 15 min, 30 min, 1 h, 2 h, 4 h, 6 h, 8 h, 10 h, 12 h, and 24 h. Before analysis and detection, all the samples were stored at −80° C., and the samples were subjected to quantitative analysis using LC-MS/MS.

Data set [4] is described as follows: Pharmacokinetic test in mice. Type of data set: in vivo, ICR mice.
[5] abbreviates: male, dog, iv, plasma, i.v. (1 mg/kg).
Where [6] appears, read: male, dog, po, plasma, i.g. (5 mg/kg).
[7] abbreviates: male, cynomolgus monkey, iv, plasma, i.v. (1 mg/kg).
The mark [8] stands for this setting: male, ICR, mouse, iv, plasma, i.v. (5 mg/kg).
Setting [9] is: male, ICR, mouse, po, plasma, i.g. (10 mg/kg).

For the compound `[O-][S@+]1CCc2nc(N3C[C@H]4CN(c5ccc6c(c5)CC6)C[C@H]4C3)nc(NC3(CO)CCC3)c21` [Compound 31], the F in data set [1] (i.g. (5 mg/kg)) is listed as no less than 98%; in data set [3] (i.g. (3 mg/kg)), 30.9 ± 13%. Further, the AUC(0-t) in data set [1] (setting [5]) was determined as 7070 ± 3250 ng·h/mL; in data set [1] (setting [6]), 26100 ± 11900 ng·h/mL; in data set [3] (setting [7]), 8550 ± 664 ng·h/mL; in data set [3] (male, cynomolgus monkey, po, plasma, i.g. (3 mg/kg)), 7930 ± 3240 ng·h/mL. Moreover, the clearance in data set [1] (setting [5]) was 2.69 ± 1.7 mL/min/kg; in data set [3] (setting [7]) it was 1.95 ± 0.15 mL/min/kg. Moreover, the half-life in data set [1] (setting [5]) was 5.85 ± 0.63 h; in data set [1] (setting [6]), 7.38 ± 1.2 h. Besides, the Vd in data set [1] (male, dog, iv, plasma, i.v. (1 mg/kg), read-out: Vdss) stood at 0.957 ± 0.37 L/kg; in data set [3] (male, cynomolgus monkey, iv, plasma, i.v. (1 mg/kg), read-out: Vdss), 0.888 ± 0.16 L/kg. For the same compound, the IC50 in data set [2] is 50 to 100 nM. In data set [2] (read-out: Max inhibition (%)), the Emax stood at 75.4%.
In data set [4] (i.g. (10 mg/kg)), `C#Cc1cnc(C2=CCN(c3nc4c(c(NC5(CO)CCC5)n3)[S+]([O-])CC4)CC2)nc1` (stereo not shown) [Compound 37] gave an F of no less than 98%. Moreover, in data set [4] (setting [8]), the area under the curve AUC(0-t) was 6000 ± 1090 ng·h/mL, the clearance is 7.03 ± 1.1 mL/min/kg and the half-life was 3.34 ± 0.3 h. Moreover, the Vd in data set [4] (male, ICR, mouse, iv, plasma, i.v. (5 mg/kg), read-out: Vdss) is 1.3 ± 0.086 L/kg. In addition, in data set [4] (setting [9]), the AUC(0-t) is 26900 ± 3910 ng·h/mL and the half-life was 4.3 ± 0.69 h. In addition, in data set [2], the IC50 is less than 10 nM.
